Structures can show the parent of a compound that is named as a salt.
Molecular target: T1, ABCB6 (ABCB6-flag) (Homo sapiens, UniProt Q9NP58)
T1 construct: wild-type ABCB6, C-terminal FLAG tag kept; stably expressed (CMV promoter) in K562 cells (whole cells, mitochondria)
T1 sequence (Q9NP58 1-842): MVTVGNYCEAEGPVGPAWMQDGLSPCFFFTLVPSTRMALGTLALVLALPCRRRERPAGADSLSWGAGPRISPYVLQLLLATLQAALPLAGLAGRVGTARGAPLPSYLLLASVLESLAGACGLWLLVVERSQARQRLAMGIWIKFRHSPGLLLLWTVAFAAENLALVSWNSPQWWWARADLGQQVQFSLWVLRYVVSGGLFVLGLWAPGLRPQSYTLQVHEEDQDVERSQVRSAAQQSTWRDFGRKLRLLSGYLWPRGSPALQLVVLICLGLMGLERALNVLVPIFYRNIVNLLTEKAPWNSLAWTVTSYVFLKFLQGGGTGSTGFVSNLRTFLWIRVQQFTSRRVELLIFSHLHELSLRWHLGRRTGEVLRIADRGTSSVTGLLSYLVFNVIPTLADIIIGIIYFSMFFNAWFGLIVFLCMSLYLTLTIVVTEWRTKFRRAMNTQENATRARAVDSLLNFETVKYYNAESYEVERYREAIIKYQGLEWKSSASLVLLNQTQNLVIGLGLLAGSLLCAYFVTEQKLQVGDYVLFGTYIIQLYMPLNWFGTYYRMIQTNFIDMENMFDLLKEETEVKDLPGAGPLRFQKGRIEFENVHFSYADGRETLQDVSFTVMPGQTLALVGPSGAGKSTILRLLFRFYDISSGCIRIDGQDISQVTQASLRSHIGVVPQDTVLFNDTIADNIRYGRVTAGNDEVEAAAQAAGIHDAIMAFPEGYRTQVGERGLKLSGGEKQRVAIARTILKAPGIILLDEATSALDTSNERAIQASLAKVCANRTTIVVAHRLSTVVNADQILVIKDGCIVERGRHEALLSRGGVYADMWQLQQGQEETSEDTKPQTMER
Test: displacement of ABCB6 from hemin-agarose (mitochondrial fraction; dose dependent also with purified ABCB6-flag)
Assay type: binding

For `C[C@H]1CC[C@]2(NC1)O[C@H]1C[C@H]3[C@@H]4CC[C@H]5C[C@@H](O[C@@H]6O[C@H](CO)[C@H](O[C@@H]7O[C@H](CO)[C@@H](O)[C@H](O[C@@H]8OC[C@@H](O)[C@H](O)[C@H]8O)[C@H]7O[C@@H]7O[C@H](CO)[C@@H](O)[C@H](O)[C@H]7O)[C@H](O)[C@H]6O)CC[C@]5(C)[C@H]4CC[C@]3(C)[C@H]1[C@@H]2C` [THC, tomatine hydrochloride], the inhibition at 5 µM was over 50%.

From publication PMC3393737 (PLoS ONE, 2012)
